In a melting point compilation (Tetko et al.; mined from patent text by program, amines drawn as free bases though some values may be those of a salt):

Row | Structure (SMILES) | melting point
1 | CCOC(=O)c1c(N2CCC(N(C)C)CC2)c2cc(C)ccc2n(Cc2ccccc2)c1=O | > 60 °C
2 | CC(C)c1cccc(C(C)C)c1NC(=O)NS(=O)(=O)Oc1c(C(C)C)cccc1C(C)C | 186 to 189 °C
3 | CN(C(=O)c1ccc(Cn2cnc3ccccc32)cc1)[C@@H]1CCNC1 | 150 to 152 °C
4 | C(=Nn1ccnc1N1CCOCC1)c1ccccc1 | 59 to 61 °C
5 | N/C(=C1/Sc2ccc(Cl)cc2C1=O)c1ccccc1 | 172 to 173 °C
6 | COc1ccc2oc(Cc3cccnc3)c(CC#N)c2c1 | 123 °C
7 | Fc1ccccc1-c1nnc(-c2ccccc2C(F)(F)F)o1 | 68 to 69 °C
8 | CCCCCCC(O)CCCCCCCCCCC(N)=O (stereo not given) | 98 to 99 °C
9 | O=C1c2cc(C(=O)N3CCCCC3)ccc2-c2ccc(C(=O)N3CCCCC3)cc21 | 94.5 to 95.5 °C
10 | N#Cc1ccc(SC2SCC(O)C(O)C2O)cc1 (stereo not given) | 175 °C
11 | Cc1ccc(S(=O)(=O)N2[C@@H](c3ncn(C)n3)CC[C@H]2c2ccc(F)cc2)cc1 (racemic) | 160 °C
12 | c1ccc(-c2cnc3nncn3c2)cc1 | 231 °C
13 | Cc1nc2cc(OCCCN3CC=C(c4c[nH]c5ccc(C#N)cc45)CC3)ccc2s1 | 263 to 265 °C
14 | Cn1c(COc2ccc(C=C3SC(=O)NC3=O)cc2)nc2ccc(Sc3cc(C(C)(C)C)c(O)c(C(C)(C)C)c3)cc21 | 247 to 249 °C
15 | Cc1nc(-c2cn(Cc3ccccc3)nn2)sc1C(=O)NCc1cccnc1 | 212 to 213 °C
16 | Nc1c(F)c(N2CCC(C(N)c3cccnc3)C2)c(F)c2c1c(=O)c(C(=O)O)cn2C1CC1F (stereo not given) | 123 to 126 °C
17 | Cc1cc(Oc2ccc(Cl)nn2)c(C)cc1N | 138 to 140 °C
18 | N#Cc1ccc(Cn2c(N3CCC(CNc4nccc(O)n4)CC3)nc3ccccc32)cc1 | 198 °C
19 | COc1ccc2c(c1)c(Cc1cc(=O)n(-c3cnc4ccccc4n3)[nH]1)c(C)n2C(=O)c1ccc(Cl)cc1 | 231 to 233 °C
20 | O=C(Nc1ccc(Cl)cc1)NC(c1ccccc1)C(O)c1ccccc1 (stereo not given) | 198 °C
21 | CCOCc1nc2c(N)nc3ccccc3c2n1Cc1cc(-c2ccccc2)no1 | 215 to 216 °C
22 | CCCN(C1=C(O)CC(C2CCCC2)(C2CCCC2)OC1=O)c1cccc(NS(=O)(=O)c2cccs2)c1 | 92 to 95 °C
23 | N#Cc1cnc(-c2c(Cl)cc(C(F)(F)F)cc2Cl)[nH]1 | 210 to 212 °C
24 | C=CCOC(=O)c1c(C)nc2c(cnn2CCC#CC)c1N | 114 to 115 °C

Row | Structure (SMILES) | melting point
25 | CN(C)CCC(=O)Nc1cccc(NC(=O)Nc2ccc(N(CCCl)CCCl)cc2)c1 | 88 to 90 °C
26 | COc1ccc2c(C3=C(c4cn(C)c5cc(OC)ccc45)C(=O)NC3=O)cn(C)c2c1 | 257 to 258 °C
27 | Cc1ccc(COCc2c(C(C)C)cc(C(C)C)c(C(C)O)c2-c2ccc(F)cc2)cc1 (single isomer, unassigned; (+)) | 84 to 86 °C
28 | Cc1c(O)ccnc1CSc1nc2ccc(F)cc2[nH]1 | 232 to 233 °C
29 | Cc1cc(-c2ccccc2C)ccc1NC(=O)c1ccc2n1Cc1ccccc1N(C(=O)COc1ccc(Cl)cc1)C2 | 159 to 161 °C
30 | CC(Cc1ccccc1)CN(C)C1CCC(c2ccc3[nH]c(=O)oc3c2)CC1 (stereo not given) | 43 to 48 °C
31 | CCSc1nnc(S)n1N | 172 °C
32 | NC(=NO)c1c(F)cccc1C(F)(F)F | 155 to 157 °C
33 | O=C(Nc1ccc(CN2CCCC2)cc1)C1=Cc2cc(-c3ccccc3)ccc2CC1 | 186 to 187 °C
34 | COc1ccc(-c2cc3c4n(ccc-3n2)CC(C)=N4)cc1 | 168 °C
35 | COc1ccc2c(c1)C1=NNC(c3ccncc3)C1CCC2 (stereo not given) | 162 to 166 °C
36 | COc1ccc(-c2c(CCN3CCN(c4cc(C)ccn4)CC3)c3cccc4c3n2CCC4)cc1 | 120 °C
37 | Cc1cc2c(cc1C)N(C)c1cscc1C(=O)N2 | 260 to 262 °C
38 | O=C1c2ccccc2C(OCCc2ccccn2)N1c1ccc2ccc(Cl)nc2n1 (stereo not given) | 142 °C
39 | O=C(Nc1cc2nc(-c3ccc(C(=O)C4CCCCC4)cc3)[nH]c2cn1)C1CCCCC1 | 235 °C
40 | CC(=O)c1c(N(C)C)c(-c2ccccc2)n(Cc2ccc(Cl)cc2)c1C | 118 to 119 °C
41 | O=C1Oc2ccccc2Oc2ccccc21 | 62 to 66 °C
42 | COC(=O)C1CN1C(C)=O (stereo not given) | 39 to 40 °C
43 | CCOC(CCN(C(=O)c1cccs1)c1nc(-c2cc(-c3ccccc3)no2)cs1)OCC | 100 to 101 °C
44 | O=C(Nc1ccc(-n2nc(C(F)(F)F)cc2C2CC2)c(F)c1)c1ccc2nn[nH]c2c1 | 235 to 237 °C
45 | CS(=O)(=O)OCCN(CCI)c1c(C(=O)NCCOP(=O)(O)O)cc([N+](=O)[O-])cc1[N+](=O)[O-] | 147 to 150 °C
46 | O=P(O)(O)C(O)(CCC1CCCCN1)P(=O)(O)O (stereo not given) | 193 to 195 °C
47 | O=C(Nc1cn2nc(Sc3nnc4ccccn34)ccc2n1)C1CC1 | 193 to 195 °C
48 | N#Cc1ccc(-c2cnc(Cl)o2)cc1 | 144 °C

Next, values leading:

Row | melting point | Structure (SMILES)
49 | 171 to 172 °C | CC(CNc1ccc(C(=O)O)cc1)Oc1ccc(F)cc1 (stereo not given)
50 | 248 to 249 °C | CC(=O)Oc1c(C(C)C)cc(NC(=O)Nc2cnc3c(C)cc(C)cc3c2-c2ccccc2Cl)cc1C(C)C
51 | 145 to 148 °C | CCOC(=O)C1C(=C=S)NCC1CCc1ccc(C(=O)O)cc1 (stereo not given)
52 | 94 to 95.5 °C | O=[N+]([O-])c1ccc2c(c1)C=CCCO2
53 | 178 °C | COCc1cccc(-c2c(Cl)ncn2-c2ccc(S(C)(=O)=O)cc2)c1
54 | 116 to 118 °C | CCOC(=O)c1cc(C(=O)C(C)C)c(=O)[nH]c1C(=O)OCC
55 | 223 °C | COC(=Cc1ccc(-c2cccc(N(C)C(=O)Nc3ccccc3)c2)cc1)C(=O)O
56 | 216 °C | O=C(O)c1cnn2c(C(F)F)cc(-c3ccc(C(F)(F)F)c(Cl)c3)nc12
57 | 171 to 172 °C | Cc1c(NC(=O)c2ccc(-c3ccc4c(c3)OCO4)cc2)ccc2cc(CN3CCCC3)cnc12
58 | 109 to 110 °C | CC1CC(=O)Oc2cc(O)ccc21 (stereo not given)
59 | 78 to 79 °C | FC(F)(F)c1cc(NCc2ccsc2)cc(C(F)(F)F)c1Br
60 | 125 °C | CCCn1c(C)nn(-c2ccc([N+](=O)[O-])cc2)c1=O
61 | 115 °C | O=[N+]([O-])c1cc(CCO)c(NCCO)c([N+](=O)[O-])c1
62 | > 280 °C | CNc1c(F)cc2c(=O)c(C(=O)O)cn(-c3cc(N)c(F)cc3Br)c2c1Cl
63 | 151 to 154 °C | Cc1cc2c(c(C(C)(C)C)c1)OC(=O)C2OC(=O)CCc1cc(C(C)(C)C)c(O)c(C(C)(C)C)c1 (stereo not given)
64 | 68.5 to 77 °C | Cc1cc(C2(C(F)(F)F)CC(c3ccc(S(C)=O)cc3)=NO2)ccc1N (stereo not given)
65 | 219 to 221 °C | CC(C)(C)Nc1nc2cc(Cl)c(Cl)cc2[nH]1
66 | 244 °C | O=C(NC1CCCCC1)c1c(O)c2cscc2[nH]c1=O
67 | 124 °C | COc1ccc(CC(=O)NCCc2cccc3c2OCO3)cc1OC
68 | 190 to 193 °C | CC(C)(C)c1cc(C2CC(=O)N(CCCCCCN3C(=O)CC(c4cc(C(C)(C)C)c(O)c(C(C)(C)C)c4)C3=O)C2=O)cc(C(C)(C)C)c1O (stereo not given)
69 | 257 to 259 °C | O=C(O)CN[C@H]1CCN(c2ccc3c(NC(=O)CC4CCCCC4)c(Cl)ccc3n2)C1
70 | 159 to 161 °C | COc1ccc(-c2cc(C(=O)O)c(=O)n(CC3CCCC3)n2)cc1F
71 | 192 to 194 °C | O=C1O[C@@H](CNC(=S)C(F)F)CN1c1ccc(C2CCS(=O)CC2)c(F)c1 (stereo not given in full)
72 | 86 to 88 °C | COC(=O)c1nc(OC)sc1-c1ccccc1

Row | melting point | Structure (SMILES)
73 | 204 °C | C=CCOc1ccc2c(c1)Oc1cc(O)ccc1C21OC(=O)c2ccccc21 (stereo not given)
74 | 216 to 218 °C | CCOC(=O)/C=C/C=C/c1cccc(-c2c(CC(=O)Nc3ccc(F)cc3C(F)(F)F)c(=O)oc3cc(Cl)c(C)cc23)c1
75 | 190 °C | N#CNC(=O)c1cc2cc(N3CCN(CCCCc4c[nH]c5ccc(C#N)cc45)CC3)ccc2o1
76 | 208 to 210 °C | CCOc1cc(Oc2ccc(S(C)(=O)=O)nc2)cc2cc(C3=NCC(CC(=O)O)S3)[nH]c12 (stereo not given)
77 | > 250 °C | Cn1ncc(C(=O)N2CCC2)c1C(=O)Nc1ccn2nc(-c3ccncc3)nc2c1
78 | 198 to 200 °C | CC(=O)OC(C)C(=O)Nc1ccc(C2=NNC(=O)CC2C)cc1 (stereo not given)
79 | 40 to 41 °C | CC(=O)OC(CCCCl)C(=O)OCc1ccccc1 (stereo not given)
80 | 166 to 168 °C | O=C1N(CCCCN2CCN(c3n[nH]c4ccccc34)CC2)CSC12CCCC2
81 | 211 to 212 °C | CNS(=O)(=O)c1cc(S(=O)(=O)NC)c(C(Cl)=C(Cl)Cl)cc1N
82 | 127 to 130 °C | CCC(C)(C)OC(=O)NC(C)(Cc1c[nH]c2ccccc12)C(=O)NCCCCc1ccccc1 (stereo not given)
83 | 61 to 63 °C | CCOC(=O)CCc1oc2cccc(O)c2c1C
84 | 192 to 194 °C | CC(C)(C)C(CO)NC(=O)C(CC(=O)O)n1ccc(-c2ccc(-c3ccc(C(N)=O)cc3)cc2)c1 (stereo not given)
85 | 205 °C | Cc1ccc(C(=O)C2=C(O)C(=O)N(c3ncc(S(=O)(=O)c4ccc([N+](=O)[O-])cc4)s3)C2c2ccc(C(=O)N(C)C)cc2)cc1 (stereo not given)
86 | 104 to 106 °C | O=c1c2c(Cl)cc(Cl)cc2n(Cc2ccccc2)c(=O)n1Cc1ccccc1
87 | 104 to 106 °C | CC(=O)c1c(O)cccc1OCC(O)COc1cc(C)ccc1C (stereo not given)
88 | 110 to 112 °C | COc1nc(C(F)(F)F)cc(=O)n1-c1cc(OC(C)=O)c(Cl)cc1F
89 | 223 to 225 °C | COc1ccc(C(=O)Nc2ccccc2)cc1NS(=O)(=O)c1ccc2ccccc2c1
90 | 162 to 163 °C | CC(=O)Oc1ccc(C=Cc2cc(OC(C)=O)c(OC(C)=O)c(OC(C)=O)c2)cc1
91 | 142 to 147 °C | Cc1cn(CC(=O)N(CCNC(=O)OC(C)(C)C)CC(=O)O)c(=O)[nH]c1=O
92 | 291 to 293 °C | O=C1N=NC(=O)c2c1[nH]c1cc(C(F)(F)F)ccc21
93 | 195 to 196 °C | Cc1nc(-c2cccc(F)c2)n(-c2ccc(S(N)(=O)=O)cn2)n1
94 | 211 to 213 °C | O=[N+]([O-])c1ccc(-c2nc(-c3ccccn3)no2)cc1
95 | 168 to 170 °C | Cc1ccc(C(=O)Cn2c(=O)sc3ccccc32)cc1
